The text below walks through data of US6833376B2, “5-aminoalkyl and 5-aminocarbonyl substituted indoles” (H. Lundbeck A/S, priority 1999, dated 2004).

One series deals with α1-adrenoceptors. In words: Inhibition of [3H]-prazosin binding to α1-adrenoceptors in rat brain in vitro. Conditions: [3H]-prazosin 0.25 nM, membranes from rat brain. The method, then: Method and results in Hyttel & Larsen, J. Neurochem.
The tissue is homogenized (Ultra Turrax, 10 se) in 10 mL of ice cold 50 mM tris buffer pH 7.7 (at 25° C.). The homogenate is centiflged twice at 20,000 g for 10 min at 4° C. with rehomogenization of the pellet in 10 ml ice-cold buffer. The final pellet is homogenized in 250 vol (w/v) ice-cold buffer.
The binding experiment is initiated by addition of […] of tissue suspension (final tissue content corresponds to 3 mg original tissue) and by placing the 96 deep well titer plate in a 25° C. water bath. AU tests are made in triplicates. After incubation for 20 min, the samples are filtered on a Brandel harvester under vacuum (18 inch. Hg) through printed filtermat B (13 mm). Titerplates and filter are washed 1×10 sec flow 50 L/h with ice cold buffer.
The filter mat is dried for 1 h at 110° C. and then placed in a sample bag with Meltilex B/HS (14.5 g) and melted together on the T-Tray heat sealer.
(§1) For determination of the inhibition of binding, five concentrations of drugs covering 3 decades are used.

In series [1] the target is T1, serotonin S2 (5HT2A) receptors (Rattus norvegicus, UniProt P14842).
T1 construct: rats (125-250 g) are sacrificed and cortical tissue is dissected and weighed; from tissue; host or cells: rat cortex membranes (male Wistar rats)
In words: Inhibition of [3H]-ketanserin binding to serotonin S2 (5HT2A) receptors in rat cortex in vitro. As for the experimental part: INHIBITION OF [^3H]-KETANSERIN BINDING TO SEROTONIN S2 (5HT2A) RECEPTORS IN RAT CORTEX IN VITRO
By this method, the inhibition by drugs of the binding of [^3H]-ketanserin (0.5 nM) to serotonin S2 (5-HT2) receptors in membranes from rat cortex is determined in vitro.
The tissue is homogenized (Ultra Turrax, 10 sec) in 10 mL of ice cold 50 mM tris buffer pH 7.7 (at 25° C.). The centrifige glassware used in this step has been rinsed by sonication for 10 min in ethanol. The homogenate is centrifuged twice at 20,000 g for 10 min. at 4° C., with rehomogenization of the pellet in 10 mnL ice-cold buffer. The final pellet is homogenized in 250 vol (w/v) ice-cold buffer.
Incubation tubes (96 deep well titer plate) kept on ice receive 50 mL of [^3H]-ketanserin (final concentration 0.5 nM).
The binding experiment is initiated by addition of […] of tissue suspension (final tissue content corresponds to 4 mg original tissue) and by placing the 96 deep well titer plate in a 37° C. water bath. All tests are made in triplicates.
After incubation for 30 min, the samples are filtered on a Brandel harvester under vacuum (18 inch Hg) through printed filter mat B (13 mm). Titerplate and filter are washed 2×10 sec. flow 50L/h with ice cold buffer.
The printed filter mat with purred labelled tissue are dried for 1 h at 110° C. and hereafter placed in a sample bag with Meltilex B/HS 14.5 g and melted together on the T-tray heat seal.
Specific binding is obtained by subtracting the nonspecific binding in the presence of 1 mM mianserin.
as §1
[^3H]-ketanserin=(ethylene-^3H)-ketanserin hydrochloride from New England Nuclear, specific activity […].

For a further series, the target named is T2, dopamine D2 receptors (Rattus norvegicus, UniProt P61169).
T2 construct: rats (125-250 g) are sacrificed and striatal tissue is dissected and weighed; from tissue; host or cells: rat corpus striatum membranes (male Wistar rats)
In words: Inhibition of [3H]-spiperone binding to dopamine D2 receptors in rat corpus striatum in vitro. As for the experimental part:
Inhibition of [^3H]-Spiperone Binding to Dopamnine D2 Receptors in Rat Corpus Striatum in vitro
By this method, the inhibition by drugs of the binding of [^3H]-spiperone (=^3H]-spiro-peridol) (0.5 nM) to dopamine D-2 receptors in membranes from rat corpus striatum is determined in vitro. […] PharmacoL. ToxicoL. […] This is a test for dopamnine D2 receptor binding affinity in vitro.
The tissue is homogenized (Ultra Turrax, 10 sec.) in 10 mL of ice-cold 50 mM K-phosphate buffer pH 7.4 (at 25° C.). The homogenate is centrifuiged twice at 20,000 g for 10 min at 4° C. with rehomogenization of the pellet in 10 mL ice-old buffer. The final pellet is homogenized in 1300 vol (w/v) ice-cold buffer.
The binding experiment is initiated by addition of 100 μl of [^3H]-spiperone (final concentration 0.5 nM) and by placing the tubes in a 37° C. water bath. […] The tubes are rinsed with 5 mL ice-old buffer which are then poured on the filters. Thereafter, the filters are washed with 2×5 mL of buffer. The filters are placed in counting vials and 4 mL of appropriate scintillation fluid (e.g. Picofluor™15) are added. After shaking for 1 h and storage for 2 hrs in the dark, the content of radioactivity is determined by liquid scintillation counting. Specific binding is obtained by subtracting the nonspecific binding in the presence of 10 μM of 6,7-ADTN.
For determination of the inhibition of binding, five concentrations of drugs covering 3 orders of magnitude are used.
[^3H]-Spiperone=[phenyl-4-^3H]-spiperone from Amersham International plc. England, specific activity 15-25 Ci/mmol.

Where [2] appears, read: [3H]-ketanserin 0.5 nM, membranes from rat cortex, read-out: IC50 values 5-HT2A.
Where [3] appears, read: [3H]-spiperone 0.5 nM, membranes from rat corpus striatum, read-out: IC50 values D2.

The structures appear in SMILES notation. Like-named read-outs stand apart in the source and are kept apart here.

T2 sequence (P61169 whole entry): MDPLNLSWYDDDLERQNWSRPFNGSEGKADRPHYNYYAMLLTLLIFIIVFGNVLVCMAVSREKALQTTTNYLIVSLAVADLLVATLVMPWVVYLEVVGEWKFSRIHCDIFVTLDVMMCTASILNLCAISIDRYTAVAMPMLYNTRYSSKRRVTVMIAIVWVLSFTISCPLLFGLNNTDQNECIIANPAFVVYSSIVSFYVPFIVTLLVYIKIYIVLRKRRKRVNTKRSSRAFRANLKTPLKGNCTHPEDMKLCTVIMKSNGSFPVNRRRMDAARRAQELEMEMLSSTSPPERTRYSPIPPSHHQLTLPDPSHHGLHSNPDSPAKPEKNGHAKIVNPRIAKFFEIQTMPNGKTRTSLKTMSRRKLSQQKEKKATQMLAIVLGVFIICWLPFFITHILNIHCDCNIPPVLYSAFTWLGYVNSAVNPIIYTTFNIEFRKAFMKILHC
T1 sequence (P14842 whole entry): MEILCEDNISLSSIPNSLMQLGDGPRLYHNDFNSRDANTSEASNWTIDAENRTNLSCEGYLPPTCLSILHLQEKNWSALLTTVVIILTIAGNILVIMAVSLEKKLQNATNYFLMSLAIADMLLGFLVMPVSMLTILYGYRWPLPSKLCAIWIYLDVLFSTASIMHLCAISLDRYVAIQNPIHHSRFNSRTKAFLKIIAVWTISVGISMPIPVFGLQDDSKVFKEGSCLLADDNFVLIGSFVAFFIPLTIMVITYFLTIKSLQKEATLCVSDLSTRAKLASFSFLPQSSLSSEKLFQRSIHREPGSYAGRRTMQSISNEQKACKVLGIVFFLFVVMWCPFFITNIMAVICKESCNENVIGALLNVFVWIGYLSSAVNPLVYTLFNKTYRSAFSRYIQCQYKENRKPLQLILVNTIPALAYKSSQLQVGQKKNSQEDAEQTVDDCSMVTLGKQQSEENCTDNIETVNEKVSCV

For `CN(C)C(=O)c1ccc2c(c1)c(C1CCN(CCN3CCNC3=O)CC1)cn2-c1ccc(F)cc1` [Compound 7b, N,N-Dimethyl-1-(4-fluorophenyl)-3-[1-[2-(2-imidazolidinon-1-yl)ethyl]4-piperidinyl]-1H-indole-5-carboxamide], the melting point (commonly the temperature of the solid-liquid transition) lay within 172 to 176 °C. The IC50 (commonly the concentration needed to halve the response being measured) at α1-adrenoceptors was determined as 5.4 nM. Moreover, in series [1] (setting [2]), the IC50 is 18 nM. At dopamine D2 receptors (setting [3]), the IC50 was 170 nM.

As for `CN(C)Cc1ccc2c(c1)c(C1CCN(CCN3CCNC3=O)CC1)cn2-c1ccc(F)cc1` [Compound 7c, 1-[2-[4-[5-Dimethylaminomethyl-1-(4-fluorophenyl)-1H-indol-3-yl]-1-piperidinyl]ethyl]-2-imidazolidinon], the melting point fell in the range of 166 to 174 °C. Also, the IC50 on α1-adrenoceptors is 1.3 nM. Moreover, in series [1] (setting [2]), the IC50 worked out at 50 nM. Besides, on dopamine D2 receptors (setting [3]), the IC50 was 180 nM.

As to `CN(C)Cc1ccc2c(c1)c(C1=CCN(CCN3CCNC3=O)CC1)cn2-c1ccc(F)cc1` [Compound 7d, 1-[2-[4-[5-Dimethylaminomethyl-1-(4-fluorophenyl)-1H-indol-3-yl]-1,2,3,6-tetrahydropyridin-1-yl]ethyl]-2-imidazolidinon], the melting point was 146 to 148 °C. At α1-adrenoceptors, this compound gave an IC50 of 0.53 nM. Moreover, the IC50 in series [1] worked out at 80 nM. For the same compound, the IC50 on dopamine D2 receptors was determined as 35 nM.

On α1-adrenoceptors, `COc1cc2nc(N3CCN(C(=O)c4ccco4)CC3)nc(N)c2cc1OC` [Prazosin, reference compound] gave an IC50 of 0.36 nM.

`O=C1NCCN1CCN1CCC(c2cn(-c3ccc(F)cc3)c3ccc(Cl)cc23)CC1` [Sertindole, sertindole, reference compound] registered an IC50 at α1-adrenoceptors of 3.4 nM.
